A short description of data set [1]: Calcium phosphate dissolution in vitro (CaHPO4 test). Format: physicochemical. As to conditions: for Consumption Sequestering Agent Solution: 10 mg/ml solution, pH 7.4, clear solution after 1 hour; for mg CaHPO4 dissolved / gm Sequestering Agent: pH 7.4, 1 hour. As for the experimental part: Essential tests for the effectiveness of the compounds in physiological systems are in vitro tests for the dissolving of freshly precipitated CaHPO4, as well as preventing the precipitation of NH4 MgPO4 at a pH of 7.4. The "CaHPO4 test" was carried out as follows.
By combining 25 ml of a phosphate solution (1.38 gm of NaH2 PO4.H2 O/liter, standardized to a pH of 7.4) and 25 ml of a calcium solution (1.45 gm of CaCl2.2H2 O/liter, standardized to a pH of 7.4), a precipitate of CaHPO4 was produced. Thereafter, so much of a solution of the sequestering agent (at a concentration of 10 mg/ml) was added from a burette that a clear solution was obtained after standing for 1 hour.

The nature of data set [2]: Sequestration of calcium (modified Hampshire test). Format: physicochemical. The conditions noted are these: pH 11; for Consumption of Sequestering Agent Solution: 1 gm sequestering agent in 50 ml H2O, until CaCO3 precipitate redissolved. The protocol:
In the investigation of the sequestration of calcium, a modified Hampshire test was employed and worked as follows:
1 gm of the sequestering agent was dissolved in 50 ml of H2 O, adjusted with NaOH to a pH of 11. 50 ml of a Ca^+^+ solution (1470 mg of CaCl2.2H2 0/1) were mixed with 100 ml of a sodium carbonate solution (7.15 gm NaCO3.10H2 O/l.). Then the solution of the sequestering agent was added in drops from a burette until the calcium carbonate precipitate was redissolved. The values formed have been reported in Table I. For the sake of simplicity, only the value for n and the various substituents for R according to Formula I are indicated in the left column of the Table.

A short description of data set [3]: Threshold effect: prevention of precipitation of poorly soluble calcium compounds by substoichiometric amounts. Format: physicochemical. As to conditions: 30 minutes. The protocol:
The prevention of the precipitation of poorly soluble calcium compounds by substoichiometric amounts of a sequestering agent was determined at 60° and 95° C as follows:
25 ml of 80° dH (German hardness) water (corresponding to 800 mg CaO/l.) were mixed with a 10 ml of a solution of the sequestering agent (concentration: 300 mg/l.). After dilution with distilled water to 70 ml, 25 ml of a sodium carbonate solution containing 4 gm/l. were added and the solution was brought to 100 ml. After heating for 30 minutes at the indicated temperature, any precipitate formed was separated. The sequestering agent was removed from a measured amount of the clear filtrate by means of an anion exchange resin. Then the content of the dissolved calcium in this sample was determined by complexometry (according to Scharzenbach).

Data set [4] can be described thus: Apatite crystallization delay test in vitro. Format: physicochemical. The conditions noted are these: 2 mg, pH 7.4, 35°C. As for the experimental part:
Supersaturated solutions of Ca^+^+ and HPO4 ^-^- ions are relatively stable, but crystallize after the addition of an apatite nuclei according to the reaction
with the release of protons. The reaction can, therefore, be readily observed by titration with a base at a constant pH.
400 ml of 0.0008 molar KH2 PO4 solution were mixed with 45 ml of a 0.012 molar CaCl2 solution, and the clear solution was standardized with KOH to a pH of 7.4, after being brought to a temperature of 35°C. […] The crystallization set in immediately and was followed by "pH-Stat" titration with 0.05 N KOH.
If a small amount (2 mg) of one of the cyclic aminophosphonic acids of the invention was added to the solution before the apatite was added, the crystallization was greatly delayed.
For simplicity's sake, only the value for n and the various substituents for R according to Formula I in Example 8 are indicated in the left column of the Table.

Data set [5] can be described thus: Inhibition of precipitation of NH4 MgPO4 in vitro. Format: physicochemical. As to conditions: pH 7.4, 72 hours. The protocol: Since the precipitation of NH4 MgPO4 is occasionally the cause of the formation of urinary calculus, the inhibition of the precipitation of NH4 MgPO4 was also tested in aqueous solutions at pH 7.4. The test was carried out as follows.
A fixed amount of the phosphonic acid was weighed into a beaker and dissolved with 25 ml of a phosphate solution (13.799 gm of NaH2 PO4.H2 O/liter) as well as with 40 ml of distilled water, and standardized with NaOH to a pH of 7.4. After adding 25 ml of a Mg^+^+ and NH4 ^+ solution (20.333 gm of MgC12.6H2 O and 5.349 gm of NH4 Cl/liter, standardized to a pH of 7.4), the solution was brought up with distilled H2 O to 100 ml. Then the sample was covered and evaluated after 72 hours for amount and appearance of the precipitate. The explanation of the data in the left column is to be found in Example 8.

Data set [6] in a line: Acute toxicity (LD50) in mice. As to conditions: mouse, in vivo. An excerpt: The new phosphonic acids are characterized by a very low acute toxicity. The following LD50 values of Table IV were found in mice. For the explanation of the data in the left column of Table IV, see Example 8.

This is an account of results in patent publication US3984543A, “Therapeutic methods employing cyclic aminophosphonic acids” (Henkel & Cie G.m.b.H., priority 1973, dated 1976).

The structures appear in SMILES notation.

Consider `NC1(P(=O)(O)O)CC(=O)NP1(=O)O` (stereo not shown) [n=1, R=H, 2-Hydroxy-2-oxo-3-amino-3-phosphonyl-5-oxo-1-aza-2-phospha-cyclopentane], for which, in data set [1], the “Consumption Sequestering Agent Solution” value stood at 8.0 mL and the “mg CaHPO4 dissolved / gm Sequestering Agent” value is 420 mg CaHPO4 / gm Sequestering Ag. Besides, in data set [2], the “Consumption of Sequestering Agent Solution” value amounted to 2.6 mL and the “mg CaCO3 Sequestered per gm of Compound” value is given as 1040 mg CaCO3 per gm of Compound. In data set [3] (60 °C), the “CaO in Solution” value worked out at 76.1% and the CaO precipitated came out at 23.9%. Besides, in data set [3] (95 °C), the “CaO in Solution” value stood at 87.7% and the CaO precipitated was 12.3%.
As to `CCNC1(P(=O)(O)O)CCC(=O)N(CC)P1(=O)O` (stereo not shown) [n=2, R=C2 H5, 1-Ethyl-2-hydroxy-2-oxo-3-ethylamino-3-phosphonyl-6-oxo-1-aza-2-phospha-cyclohexane], in data set [2], the “Consumption of Sequestering Agent Solution” value was determined as 2.25 mL and the “mg CaCO3 Sequestered per gm of Compound” value is 1110 mg CaCO3 per gm of Compound.
Regarding `CNC1(P(=O)(O)O)CCC(=O)N(C)P1(=O)O` (stereo not shown) [n=2, R=CH3, 1-Methyl-2-hydroxy-2-oxo-3-methylamino-3-phosphonyl-6-oxo-1-aza-2-phospha-cyclohexane], in data set [4], the “Delay of crystallization in % after 4 Hours” value is 84% and the “Delay of crystallization in % after 8 Hours” value was 76%. Also, in data set [1], the “Consumption Sequestering Agent Solution” value is 4.0 mL and the “mg CaHPO4 dissolved / gm Sequestering Agent” value is 850 mg CaHPO4 / gm Sequestering Ag. Further, in data set [5] (145 mg), the “Precipitation after 72 hours: NH4 MgPO4 crystals” value is given as “Very few NH4 MgPO4 crystals” and the “Precipitation after 72 hours: cloudiness” value was “no cloudiness”. Moreover, in data set [5] (217.5 mg), the “Precipitation after 72 hours: NH4 MgPO4 crystals” value was “No NH4 MgPO4 crystals” and the “Precipitation after 72 hours: cloudiness” value is reported as “no”. Moreover, in data set [2], the “Consumption of Sequestering Agent Solution” value is 3.0 mL and the “mg CaCO3 Sequestered per gm of Compound” value is listed as 840 mg CaCO3 per gm of Compound.
Consider `NC1(P(=O)(O)O)CCC(=O)NP1(=O)O` (stereo not shown) [n=2, R=H, 2-Hydroxy-2-oxo-3-amino-3-phosphonyl-6-oxo-1-aza-2-phospha-cyclohexane], for which the 50% lethal dose (LD50) in data set [6] turned out to be 3200 mg/kg. Moreover, in data set [1], the “Consumption Sequestering Agent Solution” value was determined as 6.0 mL and the “mg CaHPO4 dissolved / gm Sequestering Agent” value is given as 570 mg CaHPO4 / gm Sequestering Ag. In addition, in data set [5] (61 mg), the “Precipitation after 72 hours: NH4 MgPO4 crystals” value is “Few NH4 MgPO4 crystals” and the “Precipitation after 72 hours: cloudiness” value is “some”. In data set [5] (122 mg), the “Precipitation after 72 hours: NH4 MgPO4 crystals” value was “No NH4 MgPO4 crystals” and the “Precipitation after 72 hours: cloudiness” value is given as “great”. For the same molecule, in data set [2], the “Consumption of Sequestering Agent Solution” value worked out at 2.6 mL and the “mg CaCO3 Sequestered per gm of Compound” value was 1040 mg CaCO3 per gm of Compound. Also, in data set [3] (60 °C), the “CaO in Solution” value was 99.6% and the CaO precipitated is listed as 0.4%. Besides, in data set [3] (95 °C), the “CaO in Solution” value was 99.5% and the CaO precipitated is on record as 0.5%.
For the molecule `CNC1(P(=O)(O)O)CCCC(=O)N(C)P1(=O)O` (stereo not shown) [n=3, R=CH3, 1-Methyl-2-hydroxy-2-oxo-3-methylamino-3-phosphonyl-7-oxo-1-aza-2-phospha-cycloheptane], in data set [1], the “Consumption Sequestering Agent Solution” value came to 5.0 mL and the “mg CaHPO4 dissolved / gm Sequestering Agent” value is 680 mg CaHPO4 / gm Sequestering Ag. In addition, in data set [5] (72 mg), the “Precipitation after 72 hours: NH4 MgPO4 crystals” value is reported as “Few NH4 MgPO4 crystals”. In addition, the “Precipitation after 72 hours: NH4 MgPO4 crystals” value in data set [5] (144 mg) is “No NH4 MgPO4 crystals”. For the same molecule, in data set [2], the “Consumption of Sequestering Agent Solution” value turned out to be 3.8 mL and the “mg CaCO3 Sequestered per gm of Compound” value is given as 660 mg CaCO3 per gm of Compound.
In data set [6], `NC1(P(=O)(O)O)CCCC(=O)NP1(=O)O` (stereo not shown) [n=3, R=H, 2-Hydroxy-2-oxo-3-amino-3-phosphonyl-7-oxo-1-aza-2-phospha-cycloheptane] came in with a 50% lethal dose (LD50) of 10000 mg/kg. Besides, in data set [4], the “Delay of crystallization in % after 4 Hours” value was 96% and the “Delay of crystallization in % after 8 Hours” value came to 96%. Also, in data set [1], the “Consumption Sequestering Agent Solution” value worked out at 2.5 mL and the “mg CaHPO4 dissolved / gm Sequestering Agent” value is listed as 1350 mg CaHPO4 / gm Sequestering Ag. Also, in data set [5] (68.5 mg), the “Precipitation after 72 hours: NH4 MgPO4 crystals” value is “Fewer NH4 MgPO4 crystals” and the “Precipitation after 72 hours: cloudiness” value is recorded as “great cloudiness”. Besides, in data set [2], the “Consumption of Sequestering Agent Solution” value worked out at 3.1 mL and the “mg CaCO3 Sequestered per gm of Compound” value is 810 mg CaCO3 per gm of Compound. Besides, in data set [3] (60 °C), the “CaO in Solution” value is reported as 99.6% and the CaO precipitated was found to be 0.4%. In addition, in data set [3] (95 °C), the “CaO in Solution” value turned out to be 99.5% and the CaO precipitated is on record as 0.5%.
